The values that follow come from patent publication US10927096B2, “Ester substituted ion channel blockers and methods for use” (Nocion Therapeutics, Inc., priority 2019, dated 2021).

Data set [1] has as its target T1, NaV1.7 (Homo sapiens, UniProt Q15858).
T1 construct: expressed in transfected cells; host or cells: HEK293, tetracycline-inducible
The data set is described as follows: Automated patch clamp (Qube 384), internal block of NaV1.7 in HEK293 cells. It is filed as cell-based. The settings on record: compound in internal solution, read-out: NaV1.7 Intracellular Inhibition. On the procedure:
(§1) NaV1.7 was expressed in HEK293 cells upon induction with tetracycline. Cells were cultured in DMEM containing 10% dialyzed Fetal Bovine Serum (VWR, Radnor, Pa.), 1% Glutamax (VWR, Radnor, Pa.), 1% Penicillin-Streptomycin (VWR, Radnor, Pa.), 100 mg/L Hygromycin (Thermo Fisher Scientific, Waltham, Mass. and 5 mg/L Blasticidin (Alfa Aesar, Haverhill, Mass.). Cells were grown and maintained at 37° C. in a humidified environment containing 10% CO2 in air. Cells were detached from the culture flask for passage and harvested using 0.05% Trypsin-EDTA (Thermo Fisher Scientific, Waltham, Mass.). To induce NaV1.7, cells were induced with tetracycline (0.1-1 μg/mL, IBI Scientific, Peosta, Iowa) the day before recording.
Before experiments, cells were washed with DPBS (VWR, Radnor, Pa.), digested with Detachin (VWR Radnor, Pa.) and then triturated 10 times in CHO Serum-Free Media (VWR Radnor, Pa.) to resuspend the cells and to break apart cell aggregates. Cells were counted and the final concentration was set at 2-5 million cells per mL.
The intracellular solution contained the following: 140 mM CsF, 1 mM/5 mM EGTA/CsOH, 10 mM HEPES, 10 mM NaCl, adjusted to pH 7.3 with CsOH, and osmolality to 320 with sucrose. The external solution contained the following: 145 mM NaCl, 4 mM KCl, 1 mM MgCl2, 2 mM CaCl2, 10 mM HEPES, 10 mM Glucose, adjusted to pH 7.4 with CsOH and osmolality to 305 with sucrose. All chemicals are from Sigma-Aldrich, St. Louis, Mo. In order to test the degree of internal block by test compounds, the compounds were dissolved in internal solution at the indicated test concentration. […] In order to test the degree of external block by test compounds the compounds were dissolved in external solution at the indicated test concentration.
Automated Patch Clamps were performed on Qube 384 (Sophion Bioscience, Woburn Mass.) with multihole Qchips at a temperature setting of 22 degrees. The whole cells configuration was formed with default Qube seal and break-in parameter. The membrane potential was held at −100 mV before the voltage protocol began. Two voltage protocols were followed.
Step 1: Cells were held at −100 mV with a depolarized pulse to −20 mV for 10 ms, the interval was set at 5 s. Currents were corrected by default leak subtraction from every pulse. The duration was set at 5 mins.
Step 2: Cells were held at −100 mV with a depolarized pulse to −20 mV for 10 ms. The frequency was 5 Hz. Currents were corrected by leak subtraction calculated before step 2. The duration was set at 4 mins.
After Step 2, the Qchip was removed from the recording chamber. The internal solution was changed with solutions containing test compounds. Qchips were held at −100 mV without pulsing after being replaced in the recording chamber. The total solution switching time was 8 minutes. After the internal solution exchange, Cells were recorded and step 2 for repeated for 10 minutes.
Data analysis was performed by Sophion Analyzer. Cells were filtered with minimum 50 MOhm seal resistance and minimum 5 nA starting current. The rundown of the currents was corrected with control cells (Non-Drug). The remaining was calculated by averaging last 3 points in the end of experiments. The base line was calculated as the average of last 3 points of Step 2. IC50 curves were plotted with DR-plots/Hill function (a dose-response plot with a Hill fit).
Representative examples of the invention were tested for intracellular inhibition of NaV 1.7 in the automated patch clamp assay. Activity Range is reported as IC50: “++++” (<1 μM), “+++” (1-3 μM), “++” (3-10 μM) or “+” (10-30 μM).
A general note: Patch clamp records ionic current or voltage across a cell membrane.

A short description of data set [2]: PAMPA membrane permeability assay. Type of data set: physicochemical. The following applies: pH 7.4 buffer, GIT lipid, 4 hours incubation. On the procedure:
The PAMPA assay (pION, Inc., Woburn Mass.) was used to determine the ability of compounds of the invention to cross an artificial lipid membrane by passive diffusion. Test compounds were dissolved in DMSO (10 mM) and diluted 200-fold in buffer (pION Inc., pH 7.4) to provide 50 uM stock solutions. Buffer (150 μL) was added to a UV blank plate and stock solutions (150 μL) were transferred to a UV reference plate. The blank and reference spectrum were read using a spectrophotometer. Stock solutions (200 μL) were added to the donor plate of the PAMPA sandwich plate and an accept plate painted with GIT lipid (pION Inc, 5 μL) was placed on top. Buffer (200 μL) was added to the acceptor plate and the PAMPA sandwich plate was incubated for 4 hours. Aliquots (150 μL) from the acceptor plate were added to a UV plate and read as acceptor spectrum. Aliquots (150 μL) of the donor solutions were added to a UV analysis plate and read as donor spectrum. The permeability coefficient of test compounds was calculated using PAMPA Explorer™ software (version 3.5.0.4) based on the AUC of the reference plate, the donor plate, and the acceptor plate.
The PAMPA permeability results (10^−6 cm/s) of representative compounds are reported as “+” (<0.1 10^−6 cm/s), “++” (0.1-2.0 10^−6 cm/s), “+++” (2.0-10.010^−6 cm/s) or “++++” (>10.0 10^−6 cm/s).

The target of data set [3] is T1, NaV1.7. Briefly: Whole cell patch clamp, internal block of NaV1.7 current. It is filed as cell-based. The settings on record: % inhibition at 1 μM test concentration, compound in internal solution, manual whole cell patch clamp. The protocol: as §1, with “expressed” for “expressed in HEK293 cells”, “C02” for “CO2”, “recording and plated onto 24-well plates. Cells were washed with DPBS (VWR, Radnor, Pa.), trypsinized and then triturated five times in 10 mL of growth media to break apart cell aggregates. For one 24-well plate, 2 mL of cell suspension was mixed with 23 mL of fresh growth media and 0.1-1 μg/mL tetracycline added. 1 ml of mixed media with cells was then added to each well of a 24-well plate, with a 12 mm coverslip already placed in the bottom of the well. Cells were then incubated in 37° C. and 10% CO2 overnight.” for “recording.”
The intracellular solution contained the following (in mM) CsCl 135, NaCl 10, EGTA 10, HEPES 10, MgCl2 2, adjusted to pH 7.2 with CsOH. The external solution was a normal Ringer solution containing (in mM) NaCl 155, HEPES 10, glucose 10, KCl 3.5, CaCl2 1.5, MgCl2 1 adjusted to pH 7.4 with NaOH. CsCl is from Alfa Aesar, Haverhill, Mass. All other chemicals are from Sigma-Aldrich, St. Louis, Mo. In order to test the degree of internal block by test compounds the compounds were dissolved in internal solution at the indicated test concentration. […] In order to test the degree of external block by test compounds the compounds were dissolved in external solution at the indicated test concentration.
18-24 hours after cells were induced with tetracycline, coverslips were placed into a chamber filled with Normal Ringer solution at room temperature and the chamber placed on a microscope. Pipettes were pulled from borosilicate glass on a P97 puller (Sutter Instrument, Novato, Calif.) and polished with a MF-830 Microforge (Narishige International USA, Inc, Amityville, N.Y.) to have a resistance of 1.5-2.5 MΩ when filled with CsCl internal solution at room temperature. Healthy cells (those that are round and translucent with no visible blemishes) were chosen for seal formation. A seal was formed between the pipette and the cell, and a brief pulse of suction was used to “break in” and establish the whole-cell configuration. The membrane potential was held at −100 mV before the voltage protocol began. Only cells with series resistance between 1.5-5 MΩ were retained for analysis. The voltage protocol was as follows: Cells were held at −100 mV for 12 ms followed by a hyperpolarizing step to −105 mV for 12 ms to monitor the leak. Cells were then stepped back to −100 mV for 40 ms. Cells were then depolarized to −20 mV for 10 ms and then returned to −100 mV for 26 ms (The FIGURE).
Once the recording was started, the voltage protocol was run at 30 second intervals for 5 minutes to get a stable baseline. This was followed by four 30-second periods of 5 Hz stimulation of the same voltage protocol separated by 1 minute of rest which was then followed by 0.33 Hz stimulation after the last train. Currents were recorded using PatchMaster software with Heka EPC10 (HEKA Electronics, Lambrecht, Germany). Only cells with inward current amplitudes at −20 mV between 400 pA and 4 nA were accepted. In addition, cells having leak currents greater than 10% of their current amplitudes were discarded.
The data was plotted using the Patchmaster software (HEKA Electronics, Lambrecht, Germany) and analyzed by plotting the minimum current during the voltage step to −20 mV (peak inward current) as a function of time. […]

Molecules are shown by their SMILES.

T1 sequence (Q15858 whole entry): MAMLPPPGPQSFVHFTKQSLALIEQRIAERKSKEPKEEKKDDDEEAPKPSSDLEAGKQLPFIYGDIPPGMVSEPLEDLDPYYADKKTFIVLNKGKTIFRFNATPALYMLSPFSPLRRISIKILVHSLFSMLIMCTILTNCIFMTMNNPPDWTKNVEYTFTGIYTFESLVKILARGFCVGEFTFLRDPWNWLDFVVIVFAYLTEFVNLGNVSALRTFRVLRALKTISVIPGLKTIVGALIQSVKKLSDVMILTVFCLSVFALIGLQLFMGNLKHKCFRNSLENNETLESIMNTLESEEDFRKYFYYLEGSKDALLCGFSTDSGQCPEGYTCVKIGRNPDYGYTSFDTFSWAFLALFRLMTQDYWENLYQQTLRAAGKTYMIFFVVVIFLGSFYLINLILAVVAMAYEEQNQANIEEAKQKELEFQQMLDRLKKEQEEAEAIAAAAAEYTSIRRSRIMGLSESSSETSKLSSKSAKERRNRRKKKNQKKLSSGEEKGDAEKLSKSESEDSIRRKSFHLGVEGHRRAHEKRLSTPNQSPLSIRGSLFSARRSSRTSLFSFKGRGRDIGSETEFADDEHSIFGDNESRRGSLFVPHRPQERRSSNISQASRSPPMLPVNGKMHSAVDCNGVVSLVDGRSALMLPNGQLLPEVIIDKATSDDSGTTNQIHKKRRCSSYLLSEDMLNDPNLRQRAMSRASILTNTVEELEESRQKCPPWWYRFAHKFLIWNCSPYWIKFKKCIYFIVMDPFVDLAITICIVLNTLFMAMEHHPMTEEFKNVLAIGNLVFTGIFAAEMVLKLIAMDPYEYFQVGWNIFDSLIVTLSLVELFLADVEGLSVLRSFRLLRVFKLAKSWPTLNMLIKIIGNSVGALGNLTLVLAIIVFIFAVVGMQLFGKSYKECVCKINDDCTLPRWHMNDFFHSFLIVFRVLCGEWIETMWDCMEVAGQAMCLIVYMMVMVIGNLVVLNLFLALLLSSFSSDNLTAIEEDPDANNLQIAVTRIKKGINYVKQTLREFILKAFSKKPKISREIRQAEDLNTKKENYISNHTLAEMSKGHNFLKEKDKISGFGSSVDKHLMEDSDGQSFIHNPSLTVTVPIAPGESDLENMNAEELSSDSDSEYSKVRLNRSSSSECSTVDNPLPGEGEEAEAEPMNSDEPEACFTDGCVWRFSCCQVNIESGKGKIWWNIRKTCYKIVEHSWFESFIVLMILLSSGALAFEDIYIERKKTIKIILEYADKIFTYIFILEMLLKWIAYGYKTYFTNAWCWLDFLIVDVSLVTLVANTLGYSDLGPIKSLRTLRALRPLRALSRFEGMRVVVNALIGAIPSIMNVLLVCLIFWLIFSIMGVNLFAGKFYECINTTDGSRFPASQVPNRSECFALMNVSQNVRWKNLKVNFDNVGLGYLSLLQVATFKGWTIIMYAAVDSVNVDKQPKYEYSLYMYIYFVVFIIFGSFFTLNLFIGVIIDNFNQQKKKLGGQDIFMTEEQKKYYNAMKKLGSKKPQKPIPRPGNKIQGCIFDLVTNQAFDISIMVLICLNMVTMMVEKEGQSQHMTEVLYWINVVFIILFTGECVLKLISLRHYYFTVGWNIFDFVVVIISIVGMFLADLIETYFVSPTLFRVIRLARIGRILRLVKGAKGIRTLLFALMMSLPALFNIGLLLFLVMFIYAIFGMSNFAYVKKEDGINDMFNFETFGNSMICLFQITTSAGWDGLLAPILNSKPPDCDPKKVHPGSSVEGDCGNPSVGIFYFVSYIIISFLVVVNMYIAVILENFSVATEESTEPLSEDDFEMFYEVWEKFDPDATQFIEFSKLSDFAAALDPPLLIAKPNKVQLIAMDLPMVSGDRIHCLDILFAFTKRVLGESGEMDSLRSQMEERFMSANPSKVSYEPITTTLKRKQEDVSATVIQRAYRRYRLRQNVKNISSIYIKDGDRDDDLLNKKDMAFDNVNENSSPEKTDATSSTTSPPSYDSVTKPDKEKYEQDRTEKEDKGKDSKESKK

With `COC(=O)c1cccc(C)c1NC(=O)C[N+]1(Cc2ccccc2)CCCC(C(=O)OC2CCCCC2)C1` (mixture of isomers) [Compound 17], the IC50 on NaV1.7 [1] was 3000 to 10000 nM. Besides, in data set [2], the “PAMPA (10^−6 cm/s)” value is “+++ (2.0-10.010^−6 cm/s)”. On to `CCCOC(=O)C1CCC[N+](CC(=O)Nc2c(C)cccc2C(=O)OC)(Cc2ccccc2)C1` (mixture of isomers) [Compound 18], for which the IC50 on NaV1.7 [1] is 1000 to 3000 nM. Moreover, the “PAMPA (10^−6 cm/s)” value in data set [2] is reported as “+ (<0.1 10^−6 cm/s)”. Turning to `COC(=O)c1cccc(C)c1NC(=O)C[N+]1(Cc2ccccc2)CCCC(C(=O)OCC(C)C)C1` (mixture of isomers) [Compound 20], at NaV1.7 [1], the IC50 lay in the range of 1000 to 3000 nM. Besides, the “PAMPA (10^−6 cm/s)” value in data set [2] is “+ (<0.1 10^−6 cm/s)”. On the same counts, the results for `COC(=O)c1cccc(C)c1NC(=O)C[N+]1(Cc2ccccc2)CCCC(C(=O)N2CCCCC2)C1` (mixture of isomers) [Compound 37] are 1000 to 3000 nM and “+ (<0.1 10^−6 cm/s)”. On to `COC(=O)c1cccc(C)c1NC(=O)C[N+]1(Cc2ccccc2)CCCC(C(=O)NC2CCCCC2)C1` (mixture of isomers) [Compound 42], for which the IC50 at NaV1.7 [1] lay within 1000 to 3000 nM. Further, the “PAMPA (10^−6 cm/s)” value in data set [2] is given as “+ (<0.1 10^−6 cm/s)”. In the case of `CCCN(CCC)C(=O)C1CCC[N+](CC)(CC(=O)Nc2c(C)cccc2C(=O)OC)C1` (mixture of isomers) [Compound 47], the “PAMPA (10^−6 cm/s)” value in data set [2] was “+ (<0.1 10^−6 cm/s)”. For the molecule `CC[N+]1(CC(=O)Nc2c(C)cccc2C(=O)OC)CCCC(C(=O)N2CCCCCC2)C1` (mixture of isomers) [Compound 51], the IC50 at NaV1.7 [1] lay in the range of 1000 to 3000 nM. The “PAMPA (10^−6 cm/s)” value in data set [2] was “+ (<0.1 10^−6 cm/s)”. The like results for `CC[N+]1(CC(=O)Nc2c(C)cccc2C(=O)OC)CCCC(C(=O)NC2CCCC2)C1` (mixture of isomers) [Compound 52] were, in that order, 1000 to 3000 nM and “+ (<0.1 10^−6 cm/s)”. With `CCOC(=O)c1cccc(C)c1NC(=O)C[N+]1(Cc2ccccc2)CCCCCCC1.[Br-]` [Compound 10], the “NaV1.7 Intracellular Inhibition” value at NaV1.7 [3] is listed as “+++ (90-70%)”. Besides, the “PAMPA (10^−6 cm/s)” value in data set [2] is “+ (<0.1 10^−6 cm/s)”.

`COC(=O)c1cccc(C)c1NC(=O)C[N+]1(Cc2ccccc2)CCCC(C(=O)OC(C)C)C1` (centres unmarked) [Compound 19]: the IC50 at NaV1.7 [1] was below 1000 nM. Regarding `COC(=O)c1cccc(C)c1NC(=O)C[N+]1(Cc2ccccc2)CCCC(C(=O)OC2CCCC2)C1.[Br-]` (centres unmarked) [Compound 21], the IC50 on NaV1.7 [1] was in the range of 3000 to 10000 nM. Besides, in data set [2], the “PAMPA (10^−6 cm/s)” value was “+ (<0.1 10^−6 cm/s)”. Consider `CC[N+]1(CC(=O)Nc2c(C)cccc2C(=O)OC)CCCC(C(=O)OC2CCCC2)C1.[I-]` (centres unmarked) [Compound 22], for which the IC50 at NaV1.7 [1] was in the range of 1000 to 3000 nM. Besides, the “PAMPA (10^−6 cm/s)” value in data set [2] is on record as “+ (<0.1 10^−6 cm/s)”. In the case of `CCOC(=O)C1CCC[N+](CC)(CC(=O)Nc2c(C)cccc2C(=O)OC)C1.[I-]` (centres unmarked) [Compound 24], the “NaV1.7 Intracellular Inhibition” value on NaV1.7 [3] is given as “++ (70-30%)”. Also, the “PAMPA (10^−6 cm/s)” value in data set [2] was “+ (<0.1 10^−6 cm/s)”. As to `CC[N+]1(CC(=O)Nc2c(C)cccc2C(=O)OC)CCCC(C(=O)NCC(C)C)C1.[I-]` (centres unmarked) [Compound 48], the IC50 at NaV1.7 [1] lay in the range of 1000 to 3000 nM. The “PAMPA (10^−6 cm/s)” value in data set [2] is given as “+ (<0.1 10^−6 cm/s)”.

In the case of `CC[N+]1(CC(=O)Nc2c(C)cccc2C(=O)OC)CCCC(C(=O)NC(C)C)C1.[I-]` (centres unmarked) [Compound 50], at NaV1.7 [1], the IC50 fell in the range of 1000 to 3000 nM. Moreover, the “PAMPA (10^−6 cm/s)” value in data set [2] is on record as “+ (<0.1 10^−6 cm/s)”. With `CCN(CC)C(=O)C1CCC[N+](CC)(CC(=O)Nc2c(C)cccc2C(=O)OC)C1.[I-]` (centres unmarked) [Compound 53], on NaV1.7 [1], the IC50 was 1000 to 3000 nM. Also, in data set [2], the “PAMPA (10^−6 cm/s)” value is given as “+ (<0.1 10^−6 cm/s)”. As to `CCOC(=O)c1cccc(C)c1NC(=O)C[n+]1cccc(C(=O)OC2CCCC2)c1.[Br-]` [Compound 68], the IC50 on NaV1.7 [1] fell in the range of 3000 to 10000 nM. Further, in data set [2], the “PAMPA (10^−6 cm/s)” value is reported as “+++ (2.0-10.010^−6 cm/s)”.
